Legend:
[1] = system: Candida oleophila strain O; assay: Compatibility test on fungicide-amended PDA solid medium (colony count of biocontrol agent); format: cell-based; conditions: for Compatibility: Candida oleophila strain O 10^2-10^3 cfu/ml
Method: “Compatibility” as used herein the specification, means how well a fungicide mixes with other substances. It's important to know how two formulations interact with other to avoid problems like reduced effectiveness or increased toxicity and herein measured by the unaffected colony count of biocontrol agent upon mixing with chemical fungicides.
The disclosure will be illustrated with reference to the following examples: Compatibility of biocontrol agent: Candida oleophila strain O was tested with various preharvest and post-harvest fungicides to test if they have any negative effect on Candida oleophila strain activity. The dry mass of a single Candida oleophila cell, including strain O, is approximately 47.65 picograms (pg) (48 pg=48×10^−9 mg), which is a typical mass for a single yeast cell.
1 gram of biomass (10^10 cfu/gm) was activated in 100 ml of water for 45 minutes. 1 ml of the biomass suspension was mixed with 99 ml of lactate dilution (2 g calcium lactate diluted in 99 ml water). Biomass solution was further diluted to 100 and 1000 folds and 100 μl of the diluted biomass solution was plated on synthetic fungicide amended PDA (Potato dextrose agar) plates, which yields around 10^3 and 10^2 cfu/plate, respectively, in fully compatible mixtures. Plates were incubated at 23° C. and the growth of CFUs (colony forming units) and total number of Candida oleophila colonies were counted after 5-7 days.
Pesticide amended PDA plates were prepared by inoculating pesticide on a Potato dextrose agar plate at no treatment (control), standard (full dose) and reduced (half dose) depending on the treatments. For e.g., if a pesticide has standard dose concentration of 5 ppm, then plates were prepared at 0 ppm, 2.5 ppm and 5 ppm. with that pesticide.

Neofabraea perennans = assay: Artificial wound inoculation of Fuji apples, bull's eye rot decay; format: in vivo; conditions: solo at full rate (TBZ 1.45 g/L, PYR 1.35 g/L, FDL 0.85 g/L, C. oleophila 0.33 g/L), control 98
Method: (§1) Several lab trials were conducted to test efficacy of Candida oleophila strain O against major post-harvest pathogens of pome (Blue mold: Penicillium expansum, Gray mold: Botrytis cinerea, Bull's eye rot: Neofabraea perennans and Mucor rot and to test synergistic interaction of Candida oleophila strain O with 3 post-harvest fungicides of pome fruits namely Fludioxonil (FDL), Pyrimethanil (PYR) and Thiabendazole (TBZ).
(§2) Candida oleophila strain O was applied solo and in combination with three different post-harvest fungicides at full rate (FR) and half label rate (HR) (for conventional fungicides) to study its compatibility and synergist interaction. Testing was done on artificially/lab inoculated and naturally infected fruits.
(§3) For artificial inoculations through wound, washed fruits were wounded twice at the stem end region and were kept for 30 mins to dry the juice from the wound site. Fruits were fully submerged in fungicide solutions for 1 min and then transferred to a perforated basket to drip dry. Fruits were the transferred to the fruit trays and were left to dry overnight. 5×10^4 fungal spores/mL spore suspension of post-harvest pathogens as indicated above was prepared for inoculation. 50 μL spore suspension was transferred in each wound using a pipette and was left to dry for 1 hr at room temperature. Fruits were stored in cold storage. Fruit decay was monitored periodically, when decay on control fruit was above 80%, the disease incidence and severity was evaluated on all the treatments.

Penicillium expansum = assay: Artificial wound inoculation of Fuji apples, blue mold decay; format: in vivo; conditions: solo at full rate (TBZ 1.45 g/L, PYR 1.35 g/L, FDL 0.85 g/L, C. oleophila 0.33 g/L), control 94
Method: as §1, §2, §3

Mucor sp. = assay: Artificial wound inoculation of Fuji apples, Mucor rot decay; format: in vivo; conditions: solo at full rate (TBZ 1.45 g/L, PYR 1.35 g/L, FDL 0.85 g/L, C. oleophila 0.33 g/L), control 100
Method: as §1, §2, §3

Botrytis cinerea = assay: Artificial wound inoculation of Fuji apples, gray mold decay; format: in vivo; conditions: solo at full rate (PYR 1.35 g/L, FDL 0.85 g/L, C. oleophila 0.33 g/L), control 47
Method: as §1, §2
as §3, with “50 μL spore suspension was transferred in each wound using a pipette and was left to dry for 1 hr at room temperature. Fruits were stored in cold storage.” left out

[2] = system: Candida oleophila strain O; assay: Compatibility test on fungicide-amended PDA solid medium (colony count of biocontrol agent); format: cell-based; conditions: Candida oleophila strain O 10^6 cfu/ml

Structure (SMILES) | Compatibility of Candida oleophila strain O with the fungicide (text summary of Table 1) [1] | Decay severity (%) Neofabrea sp. (Neofabraea perennans) | Decay severity (%) Penicillium sp. (Penicillium expansum) | Decay severity (%) Mucor sp. (Mucor sp.) | further results
O=C(Nc1ccccc1-c1ccc(Cl)cc1)c1cccnc1Cl [Boscalid] | compatible | – | – | – | –
[Cl-].[Cu+2].[Cu+2].[OH-].[OH-].[OH-] [Copper oxychloride] | compatible | – | – | – | –
O=S(=O)([O-])[O-].[Cu+2] [Copper sulphate] | compatible | – | – | – | –
N#Cc1c[nH]cc1-c1cccc2c1OC(F)(F)O2 [Fludioxonil] | compatible | 83% | 0% | 100% | Decay severity (%) Botrytis sp. (Botrytis cinerea): 2%
Cn1cc(C(=O)Nc2ccccc2-c2cc(F)c(F)c(F)c2)c(C(F)F)n1 [Fluxapyroxad] | compatible | – | – | – | Compatibility ([1]; fungicide 300 g/L a.i., tested dosage 0.5-2 ppm): YES; Compatibility ([1]; fungicide 300 g/L a.i., tested dosage 0.9 ppm): YES
COC(=O)N(OC)c1ccccc1COc1ccn(-c2ccc(Cl)cc2)n1 [Pyraclostrobin] | compatible | – | – | – | Compatibility ([1]; fungicide 250 g/L a.i., tested dosage 2-8 ppm): YES
Cc1cc(C)nc(Nc2ccccc2)n1 [Pyrimethanil] | compatible | 70% | 7% | 100% | Compatibility ([2]; fungicide 600 g/L a.i., tested dosage 800 ppm): YES; Decay severity (%) Botrytis sp. (Botrytis cinerea): 7%
c1ccc2[nH]c(-c3cscn3)nc2c1 [Thiabendazole] | compatible | 22% | 4% | 100% | Compatibility ([2]; fungicide 500 g/L a.i., tested dosage 200 ppm): YES
COC(=O)NC(=S)Nc1ccccc1NC(=S)NC(=O)OC [Thiophanate-methyl] | compatible | – | – | – | –

— patent US20250248405A1, “COMBINATIONS FOR CONTROLLING POST-HARVEST PATHOGENS IN AGRICULTURAL PRODUCE AND METHOD OF USE THEREOF” (Decco Worldwide Post Harvest Holding BV, priority 2024, published 2025)
